Our source for the Activity values is ChEMBL document CHEMBL4680157, “Design, synthesis and biological evaluation of novel TRβ selective agonists sustained by ADME-toxicity analysis” (Eur J Med Chem, 2020).

The nature of data set [1]: Toxicity in F344 rat assessed as effect on serum cholesterol level at 20 ug per 100 g of body weight, ig administered daily for 3 days (reference value: 67.2 +/- 2.5 mg/dl). To be noted: in vivo, po, 72 h, dose 20 µg, time 3 day.
A short description of data set [2]: Toxicity in F344 rat assessed as effect on serum bilirubin level at 20 ug per 100 g of body weight, ig administered daily for 3 days (reference value: 1.4 +/- 0.2 mg/dl). To be noted: in vivo, po, 72 h, dose 20 µg, time 3 day.
A short description of data set [3]: Toxicity in F344 rat assessed as reduction in liver and body weight ratio at 50 to 100 ug per 100 g body weight, ig administered daily for 3 days. In kind it is tissue-based. To be noted: in vivo, po, 72 h, dose 50-100 µg, time 3 day.
Data set [4] in a line: Toxicity in F344 rat assessed as effect on serum glucose level at 20 ug per 100 g of body weight, ig administered daily for 3 days (reference value: 151 +/- 13.5 mg/dl). Conditions: in vivo, po, 72 h, dose 20 µg, time 3 day.
Data set [5] is described as follows: Toxicity in F344 rat assessed as effect on serum ALT/GPT level at 20 ug per 100 g of body weight, ig administered daily for 3 days (reference value: 46 +/- 4 U/L). To be noted: in vivo, po, 72 h, dose 20 µg, time 3 day.
A short description of data set [6]: Toxicity in F344 rat assessed as increase in heart weight at 50 to 100 ug per 100 g body weight, ig administered daily for 3 days. To be noted: in vivo, po, 72 h, dose 50-100 µg, time 3 day.
Data set [7] is described as follows: Toxicity in F344 rat assessed as effect on serum AST/GOT level at 20 ug per 100 g of body weight, ig administered daily for 3 days (reference value: 153 +/- 11 U/L). To be noted: in vivo, po, 72 h, dose 20 µg, time 3 day.
Data set [8] can be described thus: Toxicity in F344 rat assessed as effect on serum triglycerides level at 20 ug per 100 g of body weight, ig administered daily for 3 days (reference value: 86.8 +/- 10.4 mg/dl). Conditions: in vivo, po, 72 h, dose 20 µg, time 3 day.
Data set [9] can be described thus: Toxicity in F344 rat assessed as increase in heart and body weight ratio at 50 to 100 ug per 100 g body weight, ig administered daily for 3 days. Conditions: in vivo, po, 72 h, dose 50-100 µg, time 3 day.

For `N[C@@H](Cc1cc(I)c(Oc2ccc(O)c(I)c2)c(I)c1)C(=O)O` [LIOTHYRONINE], the Activity in data set [1] is 65.2 mg/dL; in data set [2], 1.4 mg/dL; in data set [3], “Toxic”; in data set [4] it was 139 mg/dL; in data set [5], 53 U/L; in data set [6], “Toxic”. In addition, the results for the Activity in [7], in [8] and in data set [9] were 159 U/L, 90.2 mg/dL and “Toxic”, respectively.
